Laboratory results taken from US9593305B2, “Differentiation of pluripotent stem cells” (Janssen Biotech, Inc., priority 2008, dated 2017).

Tested on: H1 human embryonic stem cells
Test: Secondary assay: compound combined with individual growth factors or small molecules, no activin A (Example 5, Table 4);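 for Cell Number, Average Total Cell Number: Four-day assay with feeding on alternate days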;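 for Sox17 Expression, Average Total Intensity: Four-day assay with feeding on alternate days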
Assay type: cell-based
[1] = no AA (with Wnt3a), EGF + FGF4 + PDGF-A + Muscimol
[2] = no AA (with Wnt3a), EGF + FGF4 + PDGF-A + VEGF
[3] = no AA (with Wnt3a), EGF + FGF4 + PDGF-AB
[4] = no AA (with Wnt3a), EGF + FGF4 + PDGF-AB + Muscimol
[5] = no AA (with Wnt3a), EGF + PDGF-A + VEGF
[6] = no AA (with Wnt3a), FGF4 + PDGF-A + VEGF
[7] = no AA (with Wnt3a), bicuculline

## O=C1NCCCc2cncc(c2)-c2ncnc(n2)Nc2cccc(c2)CN2CCCC1C2 (centres unmarked) [Compound 17, 3,5,7,14,20,26,31-Heptaazapentacyclo[22.3.1.1-2,6˜1˜8,12˜1˜14,18˜]hentriaconta-1(28), 2(31), 3,5,8(30), 9,11,24,26-nonaen-19-one]
No AA (with Wnt3a), EGF
  Cell Number, % of positive control: 73.43%
  Cell Number, Average Total Cell Number: 6942
  Sox17 Expression, % of positive control: 0.74%
  Sox17 Expression, Average Total Intensity: 1.27E+06
No AA (with Wnt3a), EGF + FGF4
  Cell Number, % of positive control: 60.69%
  Cell Number, Average Total Cell Number: 5738
  Sox17 Expression, % of positive control: 1.83%
  Sox17 Expression, Average Total Intensity: 3.14E+06
[1]
  Cell Number, % of positive control: 144.37%
  Cell Number, Average Total Cell Number: 13649
  Sox17 Expression, % of positive control: 8.43%
  Sox17 Expression, Average Total Intensity: 1.45E+07
[2]
  Cell Number, % of positive control: 110.85%
  Cell Number, Average Total Cell Number: 10480
  Sox17 Expression, % of positive control: 5.23%
  Sox17 Expression, Average Total Intensity: 8.97E+06
[3]
  Cell Number, % of positive control: 47.10%
  Cell Number, Average Total Cell Number: 4453
  Sox17 Expression, % of positive control: 0.54%
  Sox17 Expression, Average Total Intensity: 9.30E+05
[4]
  Cell Number, % of positive control: 109.91%
  Cell Number, Average Total Cell Number: 10391
  Sox17 Expression, % of positive control: 5.20%
  Sox17 Expression, Average Total Intensity: 8.92E+06
[5]
  Cell Number, % of positive control: 60.59%
  Cell Number, Average Total Cell Number: 5728
  Sox17 Expression, % of positive control: 1.24%
  Sox17 Expression, Average Total Intensity: 2.14E+06
[6]
  Cell Number, % of positive control: 139.59%
  Cell Number, Average Total Cell Number: 13198
  Sox17 Expression, % of positive control: 7.54%
  Sox17 Expression, Average Total Intensity: 1.29E+07

## CCN1CC(=O)NCCCc2cncc(c2)-c2ncnc(n2)Nc2cc(Cl)cc(c2)C1 [Compound 35, 10-Chloro-14-ethyl-3,5,7,14,17,23,27-heptaazatetracyclo[19.3.1.1˜2,6˜0.1˜8,12]Theptacosa-1(25), 2(27), 3,5,8(26), 9,11,21,23-nonaen-16-one]
No AA (with Wnt3a), BMP1
  Cell Number, % of positive control: 210.81%
  Cell Number, Average Total Cell Number: 18849
  Sox17 Expression, % of positive control: 6.59%
  Sox17 Expression, Average Total Intensity: 1.29E+07
No AA (with Wnt3a), BMP2
  Cell Number, % of positive control: 181.38%
  Cell Number, Average Total Cell Number: 16218
  Sox17 Expression, % of positive control: 4.55%
  Sox17 Expression, Average Total Intensity: 8.89E+06
No AA (with Wnt3a), BMP2/7
  Cell Number, % of positive control: 134.67%
  Cell Number, Average Total Cell Number: 12042
  Sox17 Expression, % of positive control: 3.62%
  Sox17 Expression, Average Total Intensity: 7.08E+06
No AA (with Wnt3a), BMP4
  Cell Number, % of positive control: 187.31%
  Cell Number, Average Total Cell Number: 16748
  Sox17 Expression, % of positive control: 4.59%
  Sox17 Expression, Average Total Intensity: 8.97E+06
No AA (with Wnt3a), BMP7
  Cell Number, % of positive control: 224.91%
  Cell Number, Average Total Cell Number: 20111
  Sox17 Expression, % of positive control: 4.12%
  Sox17 Expression, Average Total Intensity: 8.05E+06
No AA (with Wnt3a), Butyrate
  Cell Number, % of positive control: 159.24%
  Cell Number, Average Total Cell Number: 14238
  Sox17 Expression, % of positive control: −0.94%
  Sox17 Expression, Average Total Intensity: −1.85E+06
No AA (with Wnt3a), EGF
  Cell Number, % of positive control: 216.23%
  Cell Number, Average Total Cell Number: 19334
  Sox17 Expression, % of positive control: 33.86%
  Sox17 Expression, Average Total Intensity: 6.62E+07
No AA (with Wnt3a), FGF4
  Cell Number, % of positive control: 49.32%
  Cell Number, Average Total Cell Number: 4410
  Sox17 Expression, % of positive control: 17.04%
  Sox17 Expression, Average Total Intensity: 3.33E+07
No AA (with Wnt3a), LY294002
  Cell Number, % of positive control: 205.49%
  Cell Number, Average Total Cell Number: 18374
  Sox17 Expression, % of positive control: 5.28%
  Sox17 Expression, Average Total Intensity: 1.03E+07
No AA (with Wnt3a), Muscimol
  Cell Number, % of positive control: 211.00%
  Cell Number, Average Total Cell Number: 18867
  Sox17 Expression, % of positive control: 13.35%
  Sox17 Expression, Average Total Intensity: 2.61E+07
No AA (with Wnt3a), PD98059
  Cell Number, % of positive control: 211.11%
  Cell Number, Average Total Cell Number: 18877
  Sox17 Expression, % of positive control: 6.64%
  Sox17 Expression, Average Total Intensity: 1.30E+07
No AA (with Wnt3a), PDGF-A
  Cell Number, % of positive control: 188.84%
  Cell Number, Average Total Cell Number: 16885
  Sox17 Expression, % of positive control: 22.94%
  Sox17 Expression, Average Total Intensity: 4.48E+07
No AA (with Wnt3a), PDGF-AB
  Cell Number, % of positive control: 186.34%
  Cell Number, Average Total Cell Number: 16662
  Sox17 Expression, % of positive control: 25.33%
  Sox17 Expression, Average Total Intensity: 4.95E+07
No AA (with Wnt3a), PDGF-B
  Cell Number, % of positive control: 158.46%
  Cell Number, Average Total Cell Number: 14168
  Sox17 Expression, % of positive control: 7.76%
  Sox17 Expression, Average Total Intensity: 1.52E+07
No AA (with Wnt3a), PDGF-C
  Cell Number, % of positive control: 186.12%
  Cell Number, Average Total Cell Number: 16642
  Sox17 Expression, % of positive control: 9.46%
  Sox17 Expression, Average Total Intensity: 1.85E+07
No AA (with Wnt3a), PDGF-D
  Cell Number, % of positive control: 197.03%
  Cell Number, Average Total Cell Number: 17618
  Sox17 Expression, % of positive control: 9.41%
  Sox17 Expression, Average Total Intensity: 1.84E+07
No AA (with Wnt3a), U0124
  Cell Number, % of positive control: 184.97%
  Cell Number, Average Total Cell Number: 16539
  Sox17 Expression, % of positive control: 3.86%
  Sox17 Expression, Average Total Intensity: 7.54E+06
No AA (with Wnt3a), U0126
  Cell Number, % of positive control: 223.24%
  Cell Number, Average Total Cell Number: 19961
  Sox17 Expression, % of positive control: −0.29%
  Sox17 Expression, Average Total Intensity: −5.75E+05
No AA (with Wnt3a), VEGF
  Cell Number, % of positive control: 204.25%
  Cell Number, Average Total Cell Number: 18263
  Sox17 Expression, % of positive control: 17.98%
  Sox17 Expression, Average Total Intensity: 3.51E+07
[7]
  Cell Number, % of positive control: 215.98%
  Cell Number, Average Total Cell Number: 19312
  Sox17 Expression, % of positive control: 1.00%
  Sox17 Expression, Average Total Intensity: 1.95E+06
No AA (with Wut3a), BMP6
  Cell Number, % of positive control: 199.50%
  Cell Number, Average Total Cell Number: 17838
  Sox17 Expression, % of positive control: 3.75%
  Sox17 Expression, Average Total Intensity: 7.32E+06
